Data published in patent US20080063628A1, “METHODS TO PROMOTE CELL DIFFERENTIATION” (priority 2006, published 2008).

Assays:
[1] = system: early passage (P5) pancreatic-derived stromal cell line; test: Two sequential low dose trichostatin A treatments, gene expression by RT-PCR (Example 7); type: cell-based, human; details: for HNF (HNF-3 beta) gene expression / Insulin gene expression / Pdx-1 gene expression / glucagon gene expression: 1.25 μM 0-24 h + 96-120 h; for HNF-3 beta RT-PCR detection cycle / Pdx-1 RT-PCR detection cycle / glucagon RT-PCR detection cycle: 1.25 μM
Protocol: Several cell lines obtained from different amniotic fluid specimens (see Example 14) and pancreas donors (see Example 13) were tested with similar results. Two lines at similar passage number but derived from different amniotic fluid specimens are shown in Table VII-A and Table VII-B for this example. One of these cell lines was also used in examples 2 and 4 above. In addition, this example also contains comparison data in Table VII-C and Table VII-D for a single pancreatic-derived stromal line grown to early and late passage number.
Amniotic fluid derived cells or pancreatic-derived stromal cells were seeded into 24-well tissue culture plates at a density of 5000/cm^2 and cultured in AMNIOMAX (Invitrogen) or DMEM with 10% FBS respectively under standard cell culture conditions until confluent. After the cells reached confluency, amniotic fluid derived cells were treated at time 0 hours with a dose of 500 nM trichostatin A, and pancreatic-derived stromal cells were treated with a dose of 1.25 μM trichostatin A solubilized in DMSO and medium. At time 24 hours, cell cultures underwent a complete medium change to remove all traces of trichostatin A. At time 96 hours, cell cultures were re-fed with fresh medium and received a second dose of trichostatin A at the same concentration as used previously. […]
Samples were taken daily for RT-PCR at the times indicated in Table VII-A to D. The culture medium was removed, and samples were rinsed in PBS then collected in RLT with β-mercaptoethanol (Qiagen). RNA was purified using the RNeasy Mini Kit (Qiagen) and RNA quantity and quality were determined using a spectrophotometer. cDNA was made using the iScript cDNA synthesis kit (BioRad).
Samples of 20 ng cDNA were used in each reaction to determine the expression levels of the following genes in amniotic fluid-derived cells: Gata1, HNF-3 beta, Pdx-1, insulin, and Sox17. Similarly, samples of 20 ng cDNA were used in each reaction to determine the expression level of the following genes in pancreatic-derived cells: glucagon, HNF-3 beta, insulin and Pdx-1. Real-Time PCR was performed on the Applied Biosystems 7500, and data was analyzed using the accompanying software according to the methods described in Example 15.
Real-time PCR amplifcation and quantitative analysis. Unless otherwise stated, all reagents were purchased from Applied Biosystems. Real-time PCR reactions were performed using the ABI PRISM™ 7500 Sequence Detection System. TAQMAN™ FAST UNIVERSAL PCR MASTER MIX™ (ABI, CA) was used with 20 ng of reverse transcribed RNA in a total reaction volume of 20 μl. Each cDNA sample was run in duplicate to allow correction of pipetting errors. Primers and FAM-labeled TAQMAN™ probes were used at concentrations of 200 nM. The level of expression for each target gene was normalized using the pre-developed Applied Biosystem's human glyceraldehyde-3-phosphate dehydrogenase (GAPDH) endogenous control kit. Primers and probes were designed using either ABI PRISM PRIMER EXPRESS™ software or a pre-developed ABI gene analysis kit. For each gene, either one of the primers or the probe were designed to be exon-boundary spanning. This eliminated the possibility of the primers/probe binding to any genomic DNA present. The primer and probe sets are listed as follows: Pdx-1 (Hs00426216), Insulin (Hs00355773), glucagon (Hs00174967), and FoxA2 (HNF 3-beta) (Hs00232764). The remaining primers were designed using the PRIMERS program (ABI, CA). After an initial 95° C. incubation for 20 sec, samples were cycled 40 times in two stages: a denaturation step at 95° C. for 3 sec, followed by an annealing/extension step at 60° C. for 30 sec.
For each primer/probe set, a cycle time value was determined as the cycle number at which the fluorescence intensity of the PCR reaction reached a specific value in the middle of the exponential region of amplification. […]

[2] = system: second amniotic fluid-derived cell line; test: as above; type: cell-based, human; details: 0.5 μM, after 72 hours, remainder of the experiment
[3] = 24 hours following the addition

CC(/C=C/C(=O)NO)=C\[C@@H](C)C(=O)c1ccc(N(C)C)cc1 [trichostatin A]
HNF (HNF-3 beta) gene expression ([1]; 24 hrs): +++ (detectable at less than 35 cycles by RT-PCR with SE less than 0.9) | Insulin gene expression ([1]; 24 hrs): nd (not detectable at >40 cycles by RT-PCR) | Pdx-1 gene expression ([1]; 24 hrs): +++ (detectable at less than 35 cycles by RT-PCR with SE less than 0.9) | glucagon gene expression ([1]; 24 hrs): +++ (detectable at less than 35 cycles by RT-PCR with SE less than 0.9) | HNF (HNF-3 beta) gene expression ([1]; 48 hrs): nd (not detectable at >40 cycles by RT-PCR) | Insulin gene expression ([1]; 48 hrs): nd (not detectable at >40 cycles by RT-PCR) | Pdx-1 gene expression ([1]; 48 hrs): nd (not detectable at >40 cycles by RT-PCR) | glucagon gene expression ([1]; 48 hrs): + (detectable between 35 and 40 cycles by RT-PCR) | HNF (HNF-3 beta) gene expression ([1]; 72 hrs): nd (not detectable at >40 cycles by RT-PCR) | Insulin gene expression ([1]; 72 hrs): nd (not detectable at >40 cycles by RT-PCR) | Pdx-1 gene expression ([1]; 72 hrs): nd (not detectable at >40 cycles by RT-PCR) | glucagon gene expression ([1]; 72 hrs): nd (not detectable at >40 cycles by RT-PCR) | HNF (HNF-3 beta) gene expression ([1]; 96 hrs): nd (not detectable at >40 cycles by RT-PCR) | Insulin gene expression ([1]; 96 hrs): nd (not detectable at >40 cycles by RT-PCR) | Pdx-1 gene expression ([1]; 96 hrs): nd (not detectable at >40 cycles by RT-PCR) | glucagon gene expression ([1]; 96 hrs): nd (not detectable at >40 cycles by RT-PCR) | HNF (HNF-3 beta) gene expression ([1]; 120 hrs): +++ (detectable at less than 35 cycles by RT-PCR with SE less than 0.9) | Insulin gene expression ([1]; 120 hrs): nd (not detectable at >40 cycles by RT-PCR) | Pdx-1 gene expression ([1]; 120 hrs): +++ (detectable at less than 35 cycles by RT-PCR with SE less than 0.9) | glucagon gene expression ([1]; 120 hrs): + (detectable between 35 and 40 cycles by RT-PCR) | HNF (HNF-3 beta) gene expression ([1]; 144 hrs): nd (not detectable at >40 cycles by RT-PCR) | Insulin gene expression ([1]; 144 hrs): nd (not detectable at >40 cycles by RT-PCR) | Pdx-1 gene expression ([1]; 144 hrs): nd (not detectable at >40 cycles by RT-PCR) | glucagon gene expression ([1]; 144 hrs): + (detectable between 35 and 40 cycles by RT-PCR) | HNF-3 beta RT-PCR detection cycle [1, 3]: 34 cycles | Pdx-1 RT-PCR detection cycle [1, 3]: 34 cycles | HNF-3 beta RT-PCR detection cycle ([1]; after the second addition): 33 cycles | Pdx-1 RT-PCR detection cycle ([1]; after the second addition): 33 cycles | glucagon RT-PCR detection cycle ([1]; after the second treatment cycle): 37 cycles | glucagon RT-PCR detection cycle ([1]; first 48 hours after addition): 34 cycles | HNF-3 beta RT-PCR detection cycle [2]: 37 cycles
